Entries after “also recorded” stand apart in the source; their conditions may differ.
Legend:
[1] = target: T1, PPARα (Homo sapiens, UniProt Q07869); test: PPRE-luc reporter assay in CV-1 cells co-transfected with PPARα and RXRα expression plasmids; assay type: cell-based; conditions: luciferase reporter
T1 construct: expressed in transfected cells; host or cells: CV-1 (monkey kidney) cells
T1 sequence (Q07869 1-468): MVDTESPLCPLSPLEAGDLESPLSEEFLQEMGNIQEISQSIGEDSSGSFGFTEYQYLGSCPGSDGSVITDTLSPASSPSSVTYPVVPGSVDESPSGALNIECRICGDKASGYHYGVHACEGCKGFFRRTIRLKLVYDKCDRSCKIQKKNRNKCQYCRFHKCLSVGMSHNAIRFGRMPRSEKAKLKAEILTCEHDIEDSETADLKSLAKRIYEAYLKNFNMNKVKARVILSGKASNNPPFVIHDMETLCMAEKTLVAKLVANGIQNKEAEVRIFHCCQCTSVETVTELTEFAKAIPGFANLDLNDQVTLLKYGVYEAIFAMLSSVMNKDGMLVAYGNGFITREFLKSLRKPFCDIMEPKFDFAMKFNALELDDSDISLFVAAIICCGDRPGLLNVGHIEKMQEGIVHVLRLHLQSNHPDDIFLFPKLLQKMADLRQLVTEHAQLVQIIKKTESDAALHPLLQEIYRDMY
T1 sequence (P19793 1-462 partner): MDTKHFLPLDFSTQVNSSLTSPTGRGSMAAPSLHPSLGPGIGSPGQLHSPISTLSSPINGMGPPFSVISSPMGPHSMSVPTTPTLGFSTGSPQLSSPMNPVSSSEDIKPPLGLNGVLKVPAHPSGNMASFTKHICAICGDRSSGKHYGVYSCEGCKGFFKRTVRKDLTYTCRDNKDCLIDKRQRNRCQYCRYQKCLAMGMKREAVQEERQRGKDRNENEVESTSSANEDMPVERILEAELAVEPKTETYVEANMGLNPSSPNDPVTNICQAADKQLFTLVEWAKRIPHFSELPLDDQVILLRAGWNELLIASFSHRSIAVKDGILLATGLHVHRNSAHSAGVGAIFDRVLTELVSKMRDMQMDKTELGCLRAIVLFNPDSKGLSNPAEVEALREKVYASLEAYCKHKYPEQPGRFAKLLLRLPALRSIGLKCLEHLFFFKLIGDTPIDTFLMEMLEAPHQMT
Experimental: In brief, monkey kidney CV-1 cells were co-transfected with appropriate reporter constructs and expression vectors. The fold activation of the reporter construct by ligand was determined at several concentrations of selected compounds (FIG. 4).^20 To examine the effect of DY-compound on PPARα-mediated PPRE transcriptional activation, a PPRE-luc reporter assay was conducted using a PPRE-driven luciferase reporter-gene (PPRE-luc) plasmid and PPARα and RXRα gene expression plasmids in CV-1 cells.

[2] = system: C57Bl/6J female mice; test: Serum triglyceride and lipid effects in C57Bl/6J female mice; assay type: in vivo
Experimental: FIG. 5. Ligand Screening Results: DY series compounds and controls administered once to C57Bl/6J female mice at 8 weeks of age. Mice were treated at 3 mg/kg for all compounds except WY14643 (100 mg/kg). Compounds gavaged at 0900; mice sacrificed 24 h later. Ordered by degree of effect on triglyceride lowering. According to our screening test, DY series compounds reduce triglycerides.
(§1) Next, we would like to investigate the therapeutic potential of DY121 to see if it could be candidate for treating NAFLD/NASH. Note that the pathogenesis of NASH has not yet been fully elucidated so far; however, the ‘two-hit’ theory is widely accepted. The first hit is the accumulation of fatty acids in the liver to cause steatosis. […] The newly produced PPARα agonist DY121 and its analogs, as well as WY100=WY14643 and GW3 (GW7647), were evaluated in C57Bl/6J female mice for their ability to alter serum triglyceride, liver gene expression, and glucose. Fibric acid derivatives (100 mg/kg/day) was used as a control, WY100 (WY14, 643, 100 mg/kg/day), GW3 (GW7647-positive control, 3 mg/kg/day), DY121 (˜3 mg/kg/day), respectively. DY series compounds and controls administered once to C57Bl/6J female mice at 8 weeks of age. Mice were treated at 3 mg/kg for all compounds except WY14643 (100 mg/kg).

[3] = Body weight and food intake of treated mice; assay type: in vivo
Experimental: as §1

- PPARα activation / PPRE-luc activity [1]: highest PPARα activation
SMILES: COc1ccc(Cn2c(CCCc3ccc(OC(C)(C)C(=O)O)cc3)nn(Cc3ccc(C)cc3)c2=O)cc1 [10a, 2-(4-{3-[4-(4-Methoxy-benzyl)-1-(4-methyl-benzyl)-5-oxo-4,5-dihydro-1H[1,2,4]triazol-3-yl]-propyl}-phenoxy)-2-methyl-propionic acid]
- hepatic TG accumulation ([2]; 3 mg/kg DY121, WY14643 100 mg/kg): suppressed; also recorded: more apparent
- serum triglyceride (TG) concentrations ([2]; DY121-treated mice vs control): significantly decreased
- body weight ([3]; 24 h vs 72 h (FIG. 8)): unaffected
- body weights and food intake ([3]; vs control group): no significant differences
